Data taken from the supplement of paper PMC11451515.

Experiments:
Test in all cases: AUC of viability dose-response curve (% viability x log10 dose units); higher = less sensitive
Conditions in all cases: 48 h
[1] = tested on: P12-Ichikawa
Procedure, shortened: (§1)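 Leukemia cells adapted to each medium (500 or 1000 cells/well, 1536-well plates) were exposed to library compounds in DMSO for 48 h at 37°C at 11 threefold doses, 47 μM to 0.79 nM. Luminescence by CellTiter-Glo One was normalised per plate to DMSO and cell-free wells, then fitted with a four-parameter log-logistic curve on log10 dose. Curves above full viability were scaled and quality-control failures removed before area under the curve was integrated by trapezoidal rule.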

[2] = tested on: SEM cells
Procedure, shortened: as §1

[3] = tested on: NOMO1
Procedure, shortened: as §1

[4] = RPMI 5 mM glucose + 10% dialyzed FBS

SMILES	AUC of viability dose-response curve ([1]; HPLM + 10% dialyzed FBS)	AUC of viability dose-response curve ([1]; RPMI 5 mM glucose + 10% FBS)	AUC of viability dose-response curve [1, 4]	AUC of viability dose-response curve ([2]; HPLM + 10% dialyzed FBS)	AUC of viability dose-response curve ([2]; RPMI 5 mM glucose + 10% FBS)	AUC of viability dose-response curve [2, 4]	AUC of viability dose-response curve ([3]; HPLM + 10% dialyzed FBS)	AUC of viability dose-response curve ([3]; RPMI 5 mM glucose + 10% FBS)	AUC of viability dose-response curve [3, 4]
CN1\C=N/C2=CC=C(NC3=CC(=CC=C3C)NC(=O)C4=CC(=CC=C4)C(C)(C)C#N)C=C2C1=O	421	395	422	424	431	433	376	377	355
CC(=O)Oc1ccccc1C(=O)Nc1ncc([N+](=O)[O-])s1	457	446	442	441	454	470	459	464	420
O=C(O)c1cccnc1Nc1cccc(C(F)(F)F)c1	451	451	444	466	420	436	446	452	461
COC1=C(OCCCN2CCOCC2)C=C3N=CC=C(OC4=CC=C(C=C4F)\C5=C\N=C(\NC6=CC=C(F)C=C6)N(C)C5=O)C3=C1	447	448	445	282	297	258	441	447	429
CCCCOCCOc1nc(-c2ccc(C(=O)O)c(F)c2)sc1C	464	434	439	456	460	475	420	437	436
Cc1csc(-c2nnc(Nc3ccc(Oc4ncccc4-c4ccnc(N)n4)cc3)c3ccccc23)c1	178	191	226	258	211	226	408	334	357
CC[C@@H]([C@H](C)O)n1ncn(-c2ccc(N3CCN(c4ccc(OCC5CO[C@@](Cn6cncn6)(c6ccc(F)cc6F)C5)cc4)CC3)cc2)c1=O (some centres not stated)	450	447	425	452	452	458	457	427	423
CNc1nc(Nc2cnn([C@H]3CCN(C4COC4)C[C@@H]3F)c2Cl)ncc1C(F)(F)F	368	400	397	388	276	363	316	360	391
CC1=CC(=CC(=C1C\C2=N\CCN2)C)C(C)(C)C	473	458	463	443	471	460	395	420	407
O=C(c1ccccc1)c1ccc2n1CCC2C(=O)O (configuration not stated)	423	413	424	439	421	426	461	458	464
CCc1ccc(/C=C2/SC(=S)NC2=O)cc1	400	386	377				377	387	375
Cc1ccnc2c1NC(=O)c1cccnc1N2C1CC1	474	464	473	457	439	444	405	424	436
CCCCOc1c(C(=O)c2c(F)cc(C)cc2F)cnc2[nH]ncc12	470	458	435	410	410	413	460	444	424
OCC(O)C(O)C(O)CO (configuration not stated)	455	432	429	421	429	402	430	414	447
CC(C)c1cc(C(C)C)c(CC(=O)N[S+](=O)([O-])Oc2c(C(C)C)cccc2C(C)C)c(C(C)C)c1	469	469	451	471	467	464	445	439	426
CC[C@H]1OC(=O)[C@H](C)C(=O)[C@H](C)[C@@H](O[C@H]2O[C@H](C)C[C@H](N(C)C)[C@H]2O)[C@](C)(OC)C[C@@H](C)C(=O)[C@H](C)[C@H]2N(CCCCn3cnc(-c4cccnc4)c3)C(=O)O[C@]12C	452	444	395	447	462	453	439	447	459
Oc1nc(-c2ccc(C(F)(F)F)cc2)nc2c1CSCC2	464	464	436	438	457	449	477	441	466
CCOC(=O)\C1=C\[C@]2(CC)CCCN3CCC4=C([C@H]23)[N]1C5=C4C=CC=C5	469	470	468	464	469	476	464	464	466
COc1cc2c(cc1OC)CN(CCc1ccc(NC(=O)c3cc(OC)c(OC)cc3NC(=O)c3cnc4ccccc4c3)cc1)CC2	412	401	402	445	418	432	459	458	464
CNC(=O)c1ccc(Nc2cc(Nc3ccccc3[S+](=O)([O-])C(C)C)c3cc[nH]c3n2)nc1	367	355	377	319	345	323	422	407	414
COC(=O)c1ccc2c(c1)NC(=O)/C2=C(\Nc1ccc(N(C)C(=O)CN2CCN(C)CC2)cc1)c1ccccc1	458	462	451				453	459	441
COc1c(C)c2c(c(O)c1C/C=C(\C)CCC(=O)O)C(=O)OC2	426	392	404	436	414	445	421	425	428
CC(C)(O)CC(=O)NCCn1ccc2ncnc(Nc3ccc(Oc4cccc(C(F)(F)F)c4)c(Cl)c3)c21	425	437	436	436	415	432	415	450	433
O=C(CCCN1CCN(c2ccc(F)cc2)CC1)NC1c2ccccc2CSc2ccccc21 (configuration not stated)	455	434	434	429	388	402	427	440	438

SMILES	AUC of viability dose-response curve ([1]; HPLM + 10% dialyzed FBS)	AUC of viability dose-response curve ([1]; RPMI 5 mM glucose + 10% FBS)	AUC of viability dose-response curve [1, 4]	AUC of viability dose-response curve ([2]; HPLM + 10% dialyzed FBS)	AUC of viability dose-response curve ([2]; RPMI 5 mM glucose + 10% FBS)	AUC of viability dose-response curve [2, 4]	AUC of viability dose-response curve ([3]; HPLM + 10% dialyzed FBS)	AUC of viability dose-response curve ([3]; RPMI 5 mM glucose + 10% FBS)	AUC of viability dose-response curve [3, 4]
Nc1c2c(nc3ccccc13)CCCC2	434	440	433	431	390	402	352	376	388
CC12CC3CC(C)(C1)CC(N)(C3)C2	450	464	467	440	419	459	446	457	461
C[C@]12CC[C@H]3[C@@H](CCC4=CC(=O)CC[C@@H]43)[C@@H]1CC[C@@H]2OC(=O)CCc1ccccc1	469	474	470	415	416	443	463	469	466
COc1cc[nH]c2ncc(C(=O)C(=O)N3CCN(C(=O)c4ccccc4)C[C@H]3C)c1-2	455	463	470	419	453	428	389	461	452
N[C@@H]1CONC1=O	468	474	465	418	443	431	474	441	464
COc1cc(C(=O)N2CC[C@@H](O)[C@@H](N)C2)cc2nc(-c3cc4ccccc4n3CC3CC3)n(C)c12	279	336	324	357	276	335	294	327	338
CC(N[C@H]1CCCC[C@@H]1NC(=O)c1ccc(Cl)cc1)c1cccc2ccccc12 (some centres not stated)	428	420	425	449	449	455	398	416	421
CC(C)OC(=O)[C@H](C)N[P@](=O)(OC[C@H]1O[C@@H](N2\C=C/C(=O)NC2=O)[C@](C)(F)[C@@H]1O)OC3=CC=CC=C3	331	391	385	387	399	405	372	412	409
Cc1ccccc1C(=O)Nc1ccc(C(=O)N2CCCC(O)c3cc(Cl)ccc32)c(C)c1 (configuration not stated)	461	462	469	460	455	446	452	471	471
O=C(O)c1cc(/N=N/c2ccc([S+](=O)([O-])Nc3ccccn3)cc2)ccc1O	465	468	474	452	465	453	471	466	470
C[C@@H](CN1CC(=O)NC(=O)C1)N1CC(=O)NC(=O)C1	278	317	303	233	206	198	273	296	301
CCCCCCCCCCCCCC(=O)N[C@H](CO)[C@H](O)c1ccc([N+](=O)[O-])cc1	369	328	318	296	276	280	342	323	327
CCCCCNC(=O)N1CCC(CN(Cc2ccc(Cl)cc2)Cc2ccc([N+](=O)[O-])s2)C1 (configuration not stated)	443	446	445	461	447	456			
COc1ccc2c(c1)[C@]13CCCCC1C(C2)N(C)CC3 (some centres not stated)	467	474	457	435	443	467	468	466	469
CCCCN(CCCC)CC(O)c1cc(Cl)cc2c1-c1ccc(Cl)cc1/C2=C/c1ccc(Cl)cc1 (configuration not stated)	446	472	448	463	438	434	456	449	461
CCCNC(=O)Nc1ccc(Oc2ncnc3cc(OC)c(OC)cc23)cc1Cl	438	433	440	441	402	413	419	417	424
COc1ccc(C(=O)CC2(O)C(=O)Nc3c(Cl)ccc(Cl)c32)cc1 (configuration not stated)	388	387	406	391	330	388	408	416	418
CN1CC(=O)N2[C@H](c3ccc4c(c3)OCO4)c3[nH]c4ccccc4c3C[C@@H]2C1=O	456	440	419	466	435	461	427	447	449
Cc1cccc(Nc2ccncc2[S+](=O)([O-])NC(=O)NC(C)C)c1	450	457	425	409	457	459	442	412	415
C=C[C@H]1CN2CCC1C[C@@H]2C(O)c1ccnc2ccc(OC)cc12 (some centres not stated)	473	470	467				462	467	463
C=CC(=O)Nc1cc2c(Nc3ccc(F)c(Cl)c3)ncnc2cc1OCCCN1CCOCC1	421	441	442				421	429	438
NC[C@H]1O[C@H](O[C@@H]2[C@H](O)[C@@H](O[C@H]3O[C@H](CO)[C@@H](O)[C@H](N)[C@H]3O)[C@H](N)C[C@@H]2N)[C@H](O)[C@@H](O)[C@@H]1O	445	466	461				455	452	458
CN(C)CC(C)(C)CNc1nn2c(-c3ccccc3)nnc2cc1C1CCC1	411	405	433				416	447	459
